Consider 36 compounds from PMC8266241, “Tetralone derivatives are MIF tautomerase inhibitors and attenuate macrophage activation and amplify the hypothermic response in endotoxemic mice” (Journal of Enzyme Inhibition and Medicinal Chemistry, 2021).

Experiment [1] has as its target T1, recombinant human MIF (Homo sapiens, UniProt P14174).
T1 construct: purchased ATGen Co. Ltd., Seoul, Republic of Korea
T1 sequence (P14174 2-115 limits assumed): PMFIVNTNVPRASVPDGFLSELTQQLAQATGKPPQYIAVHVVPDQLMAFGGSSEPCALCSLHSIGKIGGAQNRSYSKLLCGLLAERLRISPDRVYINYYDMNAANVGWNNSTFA
Nature of the experiment: Tautomerase assay: enol-keto tautomeric conversion of phenylpyruvate (ketonase reaction). The format is biochemical. The following applies: for IC50: enol-keto conversion of phenylpyruvate, 100 µM substrate, pH 6.5, read-out: Inhibition of ketonase (IC50). How it is done:
The enol-keto tautomeric conversion of phenylpyruvate (ketonase reaction) was assessed at room temperature by monitoring the decrease in absorbance at 288 nm on a dual path Shimadzu 2100 UV spectrophotometer (Shimadzu, Kyoto, Japan) according to Taylor et al.[55] with minor modifications. Briefly, the 0.72 ml reaction mixture consisted of the enzyme at a final concentration of 0.4 µg/ml and the substrate in a 50 mM sodium phosphate buffer (pH = 6.5). The phenylpyruvate substrate was dissolved fresh in absolute ethanol to yield a final concentration of 100 µM. The reaction was monitored for 75 s at room temperature. A recombinant human MIF (from ATGen Co. Ltd., Seoul, Republic of Korea) was used as the enzyme source. Inhibitors were dissolved fresh in ethanol or DMSO. […] The compounds were diluted to achieve final concentrations of 200, 100, 50, 20, 5, 1, and 0.5 µM in the reaction mixture. All data presented have been derived from consonant measurements repeated at least three times. […] The areas under the curves obtained with and without the inhibitors were used to compare the conversion rates of the substrate.

The target of experiment [2] is T1, recombinant human MIF. Nature of the experiment: Tautomerase assay: keto-enol tautomeric conversion of phenylpyruvate (enolase activity). The format is biochemical. The following applies: for IC50: keto-enol conversion of phenylpyruvate, read-out: Inhibition of enolase (IC50).
Experiment [3] relates to RAW264.7 cells. In words: Nitrite production in LPS-induced macrophages (Griess reagent). The format is cell-based, mouse. The settings on record: 20 µM pre-treatment, 1 µg/ml LPS 24 h. The procedure:
(§1) In cell culture experiments, we used RAW264.7 mouse monocyte/macrophage cell line (ECACC, Salisbury, UK; passage number: 8–15) and RAW-Blue™ cells (Invivogen, Toulouse France, passage number: 10–14). RAW264.7 and RAW-Blue™ cells were cultured in 5% CO2 at 37 °C in endotoxin-tested Dulbecco’s Modified Eagle’s Medium (high glucose, 4.5 g/L, 2 mM L-glutamine; Corning, Corning Incorporated Costar, Corning, NY) supplemented with 10% FBS. For culturing RAW-Blue™ cells, we also added 100 µg/ml normocin and 200 µg/ml zeocin to the medium. The day before the experiments, cells were plated onto 24- or 96-well plates and cultured overnight. […] The freshly synthesised tetralone derivatives were dissolved in DMSO and applied in 20 µM concentration as a pre-treatment, added 30 min before LPS induction. To exclude the effects of vehicle, both CTRL and LPS-treated cells received the same amount of DMSO.
For nitrite measurements, we applied the same culturing conditions, treatments, and equipment as described above. After 24 h of incubation, 50 µl medium was removed and added to equal amount of Griess reagent (Sigma-Aldrich, St. Louis, MO, USA) in 96-well plate. The optical density was measured at 550 nm wavelength.

Experiment [4] concerns RAW264.7 cells. Nature of the experiment: ROS production in LPS-induced macrophages (DHR123). The settings on record: 20 µM pre-treatment, 1 µg/ml LPS 24 h. The format is cell-based, mouse. The procedure:
as §1
To measure the amount of reactive oxygen species we seeded RAW264.7 cells onto 96-well plates in a density of 10^5cells/well. Cells were treated with the tetralones as a pre-treatment and they were induced with 1 µg/ml LPS for 24 h. Then 2 µM dihydrorhodamine123 (DHR123; Life Technologies, Carlsbad, CA) fluorescent dye was added and incubated for an additional 2 h. Fluorescent intensity of the dye (excitation 490 nm/emission 510–570 nm) was measured with Glomax Multi Detection System (Promega®, Madison, WI, USA).

For experiment [5], the system named is NF-κB activation in RAW-Blue™ cells. In words: NF-κB activation reporter assay (QUANTI-Blue). The format is cell-based, mouse. The following applies: 20 µM pre-treatment, 1 µg/ml LPS 24 h, vs LPS-activated cells. The procedure:
as §1
The detection of NF-κB activation was accomplished by using RAW-Blue™ cells. RAW-Blue™ cells are genetically modified RAW264.7 macrophages, which are able to secrete embryonic alkaline phosphatase (EAP) upon LPS induction and following NF-κB activation. The levels of EAP can be examined using QUANTI-Blue™ detection medium.
RAW-Blue™ cells were seeded into 96-well plate at a density of 10^5cells/well. Cells were treated with tetralones (pre-treatment, 20 µM) and with 1 µg/ml LPS. 24 h after LPS treatment 20 µl medium was removed and incubated with 100 µl QUANTI-Blue™ detection medium (Invivogen; Toulouse, France) in 96-well plates. The optical density was measured at 600 nm.

In experiment [6] the test system is IL-6 in RAW264.7 cells. In words: IL-6 production, ELISA. The following applies: 20 µM pre-treatment, 1 µg/ml LPS 24 h. The format is cell-based, mouse. The procedure: as §1, with “To exclude the effects of vehicle, both CTRL and LPS-treated cells received the same amount of DMSO.” left out
(§2) For cytokine concentration measurements, RAW264.7 cells were cultured in 24-well plates at a density of 5*10^5 cells/well and treated with tetralones (pre-treatment, 20 µM) and with 1 µg/ml LPS for 24 h. TNF-α, IL-6 and CCL-2 levels were determined from the culturing media by using Ready-Set-Go ELISA kits (eBioscience, San Diego, CA, USA) for TNF-α and IL-6 detection and mouse CCL-2 uncoated ELISA-kit (Invitrogen, Vienna, Austria) for CCL-2 determination. ELISA-kits were applied as provided by the protocol of the manufacturer, the optical density was measured at 450 nm.

Experiment [7] concerns TNF-α in RAW264.7 cells. In words: TNF-α production, ELISA. The format is cell-based, mouse. The settings on record: 20 µM pre-treatment, 1 µg/ml LPS 24 h. The procedure: as §1, with “To exclude the effects of vehicle, both CTRL and LPS-treated cells received the same amount of DMSO.” left out
as §2

On to `O=C1/C(=C/c2c(Cl)cccc2Cl)CCc2ccccc21` [Compound 11], for which the IC50 in experiment [1] came out at 58.9 ± 10.3 µM; in experiment [2], 35.5 ± 5.9 µM.
For `O=C(O)c1ccc(/C=C2\CCc3ccccc3C2=O)cc1` [Compound 14], in that order: 187 ± 32 µM and 37.7 ± 16.3 µM.
For `O=C1/C(=C/c2cccc(Br)c2)CCc2ccccc21` [Compound 9], in that order: 7340 ± 1020 µM and 3350 ± 424 µM.
With `O=C1/C(=C/c2ccccc2)CS(=O)(=O)c2ccccc21` [Compound 38], the IC50 in experiment [1] was 160 ± 38 µM; in experiment [2], 151 ± 27 µM.
The corresponding values for `O=C1C(=Cc2cccnc2)CCc2ccccc21` [Compound 25] are 20.3 ± 5.5 µM and 28.6 ± 6 µM.
On to `O=C1/C(=C/c2ccccc2)COc2ccccc21` [Compound 27], for which the IC50 in experiment [1] came out at 267 ± 59 µM; in experiment [2], 1740 ± 483 µM.
For `O=C1/C(=C/c2ccccc2)Cc2ccccc21` [Compound 1, E-2-phenylmethylene-1-indanone], in that order: 82.8 ± 16.5 µM and 20.2 ± 3.9 µM.
The corresponding values for `O=C1/C(=C/c2ccc(Br)cc2)CCc2ccccc21` [Compound 8] are 52.2 ± 11.5 µM and 232 ± 54 µM.
For `COc1cccc(/C=C2\COc3ccccc3C2=O)c1` [Compound 31], in that order: 97 ± 20.7 µM and 205 ± 32 µM.
As for `Cc1cccc(/C=C2\COc3ccccc3C2=O)c1` [Compound 29], the IC50 in experiment [1] was 56.1 ± 8.8 µM; in experiment [2], 443 ± 112 µM.
With `O=C1/C(=C/c2ccccc2Cl)CCc2ccccc21` [Compound 7], the IC50 in experiment [1] stood at 2640 ± 406 µM; in experiment [2], 458 ± 73 µM.
In the case of `O=C1/C(=C/c2ccco2)CCc2ccccc21` [Compound 19], the concentration for half-maximal inhibition (IC50) is 57.7 ± 12.6 µM in experiment [1] and 25.4 ± 4.7 µM in experiment [2].
The corresponding values for `O=C1/C(=C/c2ccc(F)cc2)CCc2ccccc21` [Compound 10] are 72.4 ± 3.4 µM and 42.1 ± 4.3 µM.
On to `O=C1/C(=C/c2ccc3c(c2)OCO3)CCc2ccccc21` [Compound 18], for which the IC50 is 50.7 ± 6 µM in experiment [1] and 213 ± 31 µM in experiment [2].
`COc1ccc(/C=C2\COc3ccccc3C2=O)cc1` [Compound 30]: the IC50 in experiment [1] came out at 96 ± 29.9 µM; in experiment [2], 425 ± 70 µM.
Turning to `O=C1/C(=C\c2ccccc2)CSc2ccccc21` [Compound 36], the IC50 in experiment [1] came to 208 ± 42 µM; in experiment [2], 633 ± 108 µM.
On to `O=C1/C(=C/c2ccc(Cl)c(Cl)c2)CCc2ccccc21` [Compound 12], for which the IC50 in experiment [1] amounted to 2620 ± 696 µM; in experiment [2], 91.5 ± 9 µM.
The corresponding values for `COc1ccc(/C=C2\CCc3ccccc3C2=O)cc1` [Compound 5] are 57 ± 14.1 µM and 33.4 ± 8.8 µM.
The corresponding values for `O=C1/C(=C/c2ccccc2)CCc2ccccc21` [Compound 2] are 127 ± 20 µM and 113 ± 16 µM.
In the case of `O=C1/C(=C/c2ccc(Cl)cc2Cl)CCc2ccccc21` [Compound 13], the figures for the half-inhibitory concentration (IC50) in experiment [1] and in experiment [2] were 16.9 ± 4.2 µM and 301 ± 42 µM, respectively. Besides, the IC50enolase/IC50ketonase in experiment [1] (selectivity for ketonase) was determined as 18.
Take `O=C1/C(=C/c2ccccc2)CCCc2ccccc21` [Compound 3, E-2-phenylmethylene-1-benzosuberone]: the values for the IC50 in experiment [1] and in experiment [2] were 84 ± 15.3 µM and 129 ± 19 µM, respectively.
As for `O=C1/C(=C/c2ccccc2)C(c2ccccc2)Oc2ccccc21` (stereo not drawn) [Compound 35], in experiment [1], the IC50 stood at 419 ± 113 µM.
Consider `Cc1ccc(/C=C2\CCc3ccccc3C2=O)cc1` [Compound 4], for which the “effect on nitrite production” value in experiment [3] is recorded as “could also inhibit nitrite production, but to a lower extent”. Also, the “effect on ROS level” value in experiment [4] is listed as “failed to modify ROS level”. The IC50 is 16.5 ± 3.4 µM in experiment [1] and 2290 ± 343 µM in experiment [2]. In addition, in experiment [5], the “effect on NF-κB activation” value was “slight, but statistically significant inhibitory effect”.
Consider `Cc1ccc(/C=C2\COc3ccccc3C2=O)cc1` [Compound 28], for which the IC50 in experiment [1] is 102 ± 19 µM; in experiment [2] it was 3620 ± 829 µM.
Take `O=C1/C(=C/c2ccccc2)C[S+]([O-])c2ccccc21` (racemic) [Compound 37]: the IC50 in experiment [1] amounted to 94.6 ± 25.4 µM; in experiment [2], 193 ± 59 µM.
The corresponding values for `CN(C)c1ccc(/C=C2\CCc3ccccc3C2=O)cc1` [Compound 15] are 90.2 ± 15.1 µM and 495 ± 101 µM.
For the compound `COc1ccc(/C=C2\CCc3ccccc3C2=O)cc1OC` [Compound 17], the values for the IC50 in experiment [1] and in experiment [2] were 585 ± 94 µM and 302 ± 63 µM, respectively.
For `O=C1/C(=C/c2ccc(Cl)cc2)CCc2ccccc21` [Compound 6], in that order: 59.1 ± 9.7 µM and 42.8 ± 3.1 µM.
Regarding `COc1ccccc1/C=C1\COc2ccccc2C1=O` [Compound 32], in experiment [3] (vs LPS-activated cells), the lower nitrite concentrations was roughly 50%. In addition, the “decrease in ROS concentrations” value in experiment [4] (vs LPS-activated cells) is listed as roughly 20%. Further, in experiment [6], the “effect on IL-6 production” value was “had the most dominant effect”. Moreover, the values for the IC50 in experiment [1] and in experiment [2] were 4.31 ± 1.34 µM and 1260 ± 159 µM, respectively. The “effect on NF-κB activation” value in experiment [5] is listed as “could not show any reducing effect”. Further, the “effect on TNF-α production” value in experiment [7] was “reduced TNF-α production”.
On to `O=C1/C(=C/c2cccs2)CCc2ccccc21` [Compound 20], for which the half-maximal inhibitory concentration (IC50) in experiment [1] is 54 ± 5.5 µM; in experiment [2], 52.3 ± 7.6 µM.
Turning to `O=C1/C(=C/c2c[nH]c3ccccc23)CCc2ccccc21` [Compound 23], the “effect on nitrite production” value in experiment [3] is “could also inhibit nitrite production, but to a lower extent”. Besides, the “effect on ROS level” value in experiment [4] was “induced a slight increase”. Besides, the results for the IC50 in experiment [1] and in experiment [2] were 58.8 ± 10.6 µM and 2.89 ± 0.75 µM, respectively. Also, the “effect on NF-κB activation” value in experiment [5] is “slight, but statistically significant inhibitory effect”. The IC50ketonase/IC50enolase in experiment [2] (selectivity for enolase) is on record as 20.
As to `O=C1/C(=C/c2ccc(Br)cc2)COc2ccccc21` [Compound 33], the IC50 in experiment [1] amounted to 311 ± 77 µM; in experiment [2] it was 1890 ± 438 µM.
As for `O=C1/C(=C/c2ccccc2Br)COc2ccccc21` [Compound 34], the figures for the IC50 in experiment [1] and in experiment [2] were 98.3 ± 16 µM and 3200 ± 887 µM, respectively.
On to `N#Cc1ccc(/C=C2\CCc3ccccc3C2=O)cc1` [Compound 16], for which the IC50 in experiment [1] came out at 146 ± 17 µM; in experiment [2], 43.2 ± 12.4 µM.
For `Cn1cccc1C=C1CCc2ccccc2C1=O` [Compound 22], the IC50 in experiment [1] was found to be 23.8 ± 3.8 µM; in experiment [2] it was 27.8 ± 5.6 µM.
Turning to `O=C1/C(=C/c2ccc[nH]2)CCc2ccccc21` [Compound 21], the IC50 in experiment [1] worked out at 142 ± 31 µM; in experiment [2] it was 125 ± 39 µM.
